Data from PubChem BioAssay AID256 (DTP/NCI, 2004).
Several values for one entry are separate records, joined by “and”; a condition that tells them apart may be missing. Equal entries are not always repeated. Inconclusive results and toxic doses are left out. Rule for the calls: active = survival T/C of 150% or more; inactive = T/C below 125% in these data.

System: CD2F1 mice, L1210 leukemia ip, survival T/C
Test: NCI In Vivo Anticancer Drug Screen. Data for tumor model L1210 Leukemia (intraperitoneal) in CD2F1 (CDF1) mice
Settings: higher = longer survival
Outline: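 Read-out first: treated-group measurement over vehicle-control measurement, expressed as a ratio. Animals bore a transplanted tumor line and were dosed with compound or vehicle.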

[1] = endpoint: mean survival time, dose: 25.0 mg/kg/injection, schedule: Q01DX009 (ip), vehicle: saline with Tween-80
[2] = endpoint: mean survival time, dose: 50.0 mg/kg/injection, schedule: Q01DX009 (ip), vehicle: saline with Tween-80
[3] = endpoint: mean survival time, dose: 100.0 mg/kg/injection, schedule: Q01DX001 (ip), vehicle: saline with Tween-80
[4] = endpoint: mean survival time, dose: 100.0 mg/kg/injection, schedule: Q04DX003 (ip), vehicle: saline with Tween-80
[5] = endpoint: mean survival time, dose: 200.0 mg/kg/injection, schedule: Q01DX001 (ip), vehicle: saline with Tween-80
[6] = endpoint: mean survival time, dose: 200.0 mg/kg/injection, schedule: Q01DX009 (ip), vehicle: saline with Tween-80
[7] = endpoint: mean survival time, dose: 200.0 mg/kg/injection, schedule: Q04DX003 (ip), vehicle: saline with Tween-80
[8] = endpoint: mean survival time, dose: 400.0 mg/kg/injection, schedule: Q01DX001 (ip), vehicle: saline with Tween-80
[9] = endpoint: mean survival time, dose: 400.0 mg/kg/injection, schedule: Q04DX003 (ip), vehicle: saline with Tween-80
[10] = endpoint: mean survival time, dose: 100.0 mg/kg/injection, schedule: Q01DX009 (ip), vehicle: saline with Tween-80
[11] = endpoint: mean survival time, dose: 100.0 mg/kg/injection, schedule: Q04DX003 (ip), vehicle: saline
[12] = endpoint: mean survival time, dose: 200.0 mg/kg/injection, schedule: Q04DX003 (ip), vehicle: saline
[13] = endpoint: mean survival time, dose: 400.0 mg/kg/injection, schedule: Q04DX003 (ip), vehicle: saline
[14] = endpoint: mean survival time, dose: 50.0 mg/kg/injection, schedule: Q04DX003 (ip), vehicle: saline
[15] = endpoint: mean survival time, dose: 25.0 mg/kg/injection, schedule: Q04DX003 (ip), vehicle: saline

Measured: T/C

CC(=O)OC1C=CC(OC(C)=O)O1 (centres undefined)
inactive: endpoint: mean survival time, dose: 0.75 mg/kg/injection, schedule: Q01DX009 (ip), vehicle: saline with Tween-80 103 % of control | endpoint: mean survival time, dose: 1.5 mg/kg/injection, schedule: Q01DX009 (ip), vehicle: saline with Tween-80 101 % of control | endpoint: mean survival time, dose: 1.88 mg/kg/injection, schedule: Q04DX003 (ip), vehicle: saline 96 % of control | endpoint: mean survival time, dose: 3.0 mg/kg/injection, schedule: Q01DX009 (ip), vehicle: saline with Tween-80 95 % of control | endpoint: mean survival time, dose: 3.75 mg/kg/injection, schedule: Q04DX003 (ip), vehicle: saline 98 % of control | endpoint: mean survival time, dose: 7.5 mg/kg/injection, schedule: Q01DX001 (ip), vehicle: saline 106 % of control | endpoint: mean survival time, dose: 7.5 mg/kg/injection, schedule: Q04DX003 (ip), vehicle: saline 102 % of control

Cc1cc(NC(=O)Oc2ccc([N+](=O)[O-])cc2)ccc1S(=O)(=O)F
inactive: [1] 91 % of control and 98 % of control | [2] 87 % of control and 96 % of control | [3] 95 % of control | endpoint: mean survival time, dose: 100.0 mg/kg/injection, schedule: Q04DX002 (ip), vehicle: saline with Tween-80 93 % of control and 100 % of control | [4] 94 % of control | [5] 101 % of control | [6] 91 % of control | endpoint: mean survival time, dose: 200.0 mg/kg/injection, schedule: Q04DX002 (ip), vehicle: saline with Tween-80 93 % of control and 107 % of control | [7] 96 % of control | [8] 98 % of control | endpoint: mean survival time, dose: 400.0 mg/kg/injection, schedule: Q04DX002 (ip), vehicle: saline with Tween-80 100 % of control and 103 % of control | [9] 102 % of control

C(=C\c1ccccn1)/c1ccccc1
inactive: [3] 100 % of control | [10] 94 % of control | [5] 89 % of control | [6] 101 % of control | [8] 92 % of control

O=C(c1ccccn1)c1ccccn1
inactive: [11] 96 % of control | [12] 104 % of control | [13] 102 % of control

Nc1nc(=O)n(CCCOc2ccccc2NC(=O)c2cccc(S(=O)(=O)F)c2)cc1-c1ccc(Cl)c(Cl)c1
inactive: [3] 91 % of control | [5] 95 % of control | [8] 98 % of control

[Co].[NH-]CC[NH-].[NH-]CC[NH-].[NH-]CC[NH-]
inactive: [1] 93 % of control | [2] 101 % of control | [10] 110 % of control | endpoint: mean survival time, dose: 100.0 mg/kg/injection, schedule: Q04DX003 (ip), vehicle: saline sonified 104 % of control

c1ccc2c(c1)OCC(CN1CCc3[nH]c4ccccc4c3C1)O2 (centres undefined)
inactive: endpoint: mean survival time, dose: 50.0 mg/kg/injection, schedule: Q01DX001 (ip), vehicle: saline with Tween-80 106 % of control | [3] 98 % of control | [5] 93 % of control

CCN(CC)CCCC(C)N (centres undefined)
inactive: [14] 101 % of control

CCCOC(C(=O)OC1CCN(C)CC1)(c1ccccc1)c1ccccc1
inactive: endpoint: mean survival time, dose: 12.5 mg/kg/injection, schedule: Q04DX003 (ip), vehicle: saline 108 % of control | [15] 102 % of control | [14] 97 % of control

COc1cc2c(cc1OC)C1CC(=O)C3=C(CCCC3)N1CC2 (centres undefined)
inactive: [4] 101 % of control | [7] 95 % of control | [9] 89 % of control

CCCCN(CCCC)CCCC
inactive: endpoint: mean survival time, dose: 100.0 mg/kg/injection, schedule: Q01DX001 (ip), vehicle: saline 93 % of control

CCC(=O)Nc1ncc([N+](=O)[O-])s1
inactive: [2] 94 % of control | [10] 100 % of control

c1cc[n+](Cc2ccc3ccccc3c2)c(C2OCCO2)c1
inactive: endpoint: mean survival time, dose: 5.0 mg/kg/injection, schedule: Q01DX009 (ip), vehicle: saline 102 % of control | endpoint: mean survival time, dose: 10.0 mg/kg/injection, schedule: Q01DX009 (ip), vehicle: saline 102 % of control | endpoint: mean survival time, dose: 20.0 mg/kg/injection, schedule: Q01DX009 (ip), vehicle: saline 105 % of control

CCCCCC(=O)SCC(=O)OCC(=O)[C@]1(O)Cc2c(O)c3c(c(O)c2[C@@H](OC2CC(N)C(O)C(C)O2)C1)C(=O)c1c(OC)cccc1C3=O (some centres undefined)
inactive: endpoint: mean survival time, dose: 0.39 mg/kg/injection, schedule: Q01DX005 (ip), vehicle: water 115 % of control and 110 % of control | endpoint: mean survival time, dose: 0.78 mg/kg/injection, schedule: Q01DX005 (ip), vehicle: water 116 % of control and 124 % of control | endpoint: mean survival time, dose: 1.56 mg/kg/injection, schedule: Q01DX005 (ip), vehicle: water 118 % of control | endpoint: mean survival time, dose: 6.25 mg/kg/injection, schedule: Q01DX005 (ip), vehicle: water 104 % of control

Cc1cccc(-n2cc(C#N)c3c(C)cc(C)nc32)c1
inactive: [11] 106 % of control | [12] 101 % of control | [13] 97 % of control

CC[n+]1cccc2ccccc21
inactive: endpoint: mean survival time, dose: 18.8 mg/kg/injection, schedule: Q01DX009 (ip), vehicle: saline 95 % of control | [15] 96 % of control | endpoint: mean survival time, dose: 37.5 mg/kg/injection, schedule: Q01DX009 (ip), vehicle: saline 96 % of control

NC(=O)c1csc(CSCCO)n1
inactive: endpoint: median survival time, dose: 41.75 mg/kg/injection, schedule: Q01DX005 (ip), vehicle: saline 103 % of control | endpoint: median survival time, dose: 83.5 mg/kg/injection, schedule: Q01DX005 (ip), vehicle: saline 104 % of control | endpoint: median survival time, dose: 167.0 mg/kg/injection, schedule: Q01DX005 (ip), vehicle: saline 102 % of control | endpoint: median survival time, dose: 334.0 mg/kg/injection, schedule: Q01DX005 (ip), vehicle: saline 98 % of control

CCN1CCCC(Nc2nc(Nc3cc(Cl)cc(Cl)c3)nc3ccc(Cl)cc23)C1 (centres undefined)
inactive: [1] 103 % of control | [4] 90 % of control

CCOC(=O)c1ccc(OCC(=O)Nc2ccccc2)cc1
inactive: [10] 97 % of control | [6] 96 % of control | endpoint: mean survival time, dose: 400.0 mg/kg/injection, schedule: Q01DX009 (ip), vehicle: saline with Tween-80 103 % of control
